≈ marks a conversion by molar mass, not a printed value.
Assay: Solubility in water at room temperature and pH of about 7
Assay type: physicochemical

| solubility (pH 7, room temperature) | solubility in water (room temperature) | Compound |
| --- | --- | --- |
| 516 µg/mL (≈ 1310 µM) |  | N[C@@H]1CCCCN(c2c(F)cc3c(=O)c(C(=O)O)cn(C4CC4)c3c2Cl)C1 [amorphous besifloxacin free base, (R)-(+)-7-(3-amino-2,3,4,5,6,7-hexahydro-1H-azepin-1-yl)-1-cyclopropyl-8-chloro-6-fluoro-1,4-dihydro-4-oxoquinoline-3-carboxylic acid] |
|  | 73.3 µg/mL (≈ 186 µM) | N[C@@H]1CCCCN(c2c(F)cc3c(=O)c(C(=O)O)cn(C4CC4)c3c2Cl)C1 [besifloxacin free base starting material, (R)-(+)-7-(3-amino-2,3,4,5,6,7-hexahydro-1H-azepin-1-yl)-1-cyclopropyl-8-chloro-6-fluoro-1,4-dihydro-4-oxoquinoline-3-carboxylic acid] |
